The values that follow come from US8802671B2, “Quinoline derivatives as antibacterial agents” (Janssen Pharmaceutica NV, priority 2005, dated 2014).

Data set [1] concerns Listeria monocytogenes (ATCC49594). Kind of data set: Microtitre plate assay, IC90 determination. It is filed as cell-based. To be noted: 90% inhibitory concentration for bacterial growth; for IC90: read-out: IC90 LMO 49594. The method, then: (§1) The bacteria used in this study were grown overnight in flasks containing 100 ml Mueller-Hinton Broth (Becton Dickinson—cat. no. 275730) in sterile de-ionized water, with shaking, at 37° C. Stocks (0.5 ml/tube) were stored at −70° C. until use. Bacteria titrations were performed in microtiter plates and colony forming units (CFUs) were determined. In general, an inoculum level of approximately 100 CFUs was used for susceptibility testing.
(§2) Anti Bacterial Susceptibility Testing: IC90 Determination
(§3) Flat-bottom, sterile 96-well plastic microtiter plates were filled with 180 μl of sterile deionized water, supplemented with 0.25% BSA. Subsequently, stock solutions (7.8× final test concentration) of compounds were added in 45 μl volumes in column 2. Serial five-fold dilutions (45 μl in 180 μl) were made directly in the microtiter plates from column 2 to reach column 11. Untreated control samples with (column 1) and without (column 12) inoculum were included in each microtiter plate. Depending on the bacteria type, approximately 10 to 60 CFU per well of bacteria inoculum (100 TCID50), in a volume of 100 μl in 2.8× Mueller-Hinton broth medium, was added to the rows A to H, except column 12. The same volume of broth medium without inoculum was added to column 12 in row A to H. The cultures were incubated at 37° C. for 24 hours under a normal atmosphere (incubator with open air valve and continuous ventilation). At the end of incubation, one day after inoculation, the bacterial growth was quantitated fluorometrically. Therefore resazurin (0.6 mg/ml) was added in a volume of 20 μl to all wells 3 hours after inoculation, and the plates were re-incubated overnight. A change in colour from blue to pink indicated the growth of bacteria. The fluorescence was read in a computer-controlled fluorometer (Cytofluor Biosearch) at an excitation wavelength of 530 nm and an emission wavelength of 590 nm. The % growth inhibition achieved by the compounds was calculated according to standard methods. The IC90 (expressed in μg/ml) was defined as the 90% inhibitory concentration for bacterial growth.

The test system of data set [2] is Streptococcus pneumoniae (ATCC6305). Kind of data set: Microtitre plate assay, IC90 determination. The settings on record: 90% inhibitory concentration for bacterial growth; for IC90: read-out: IC90 SPN 6305. It is filed as cell-based. Here is the method:
as §1, §2, §3

Data set [3] deals with Streptococcus pyogens (ATCC8668). As to the kind of experiment: Microtitre plate assay, IC90 determination. It is filed as cell-based. To be noted: for IC90: Streptococcus, ATCC8668, 90% inhibitory concentration for bacterial growth, read-out: IC90 SPY 8668; for IC90 SPY 8668: 90% inhibitory concentration for bacterial growth. Here is the method:
as §1, §2, §3

Data set [4] concerns Staphylococcus aureus (ATCC29213). Kind of data set: Microtitre plate assay, IC90 determination. It counts as cell-based. The settings on record: 90% inhibitory concentration for bacterial growth, 37° C., resazurin fluorescence; for IC90: Staphylococcus aureus, ATCC29213, 24 h, read-out: IC90 STA 29213; for IC90 STA 29213: 24 hours. Here is the method:
as §1, §2, §3

In data set [5] the test system is Streptococcus mutans (ATCC33402). Kind of data set: Microtitre plate assay, IC90 determination. It counts as cell-based. The settings on record: 90% inhibitory concentration for bacterial growth, read-out: IC90 SMU 33402. The method, then: as §1, §2, §3
Data set [6] deals with Pseudomonas aeruginosa (ATCC27853). Kind of data set: Microtitre plate assay, IC90 determination. It counts as cell-based. The settings on record: 90% inhibitory concentration for bacterial growth; for IC90: read-out: IC90 PAE 27853. Here is the method: as §1, §2, §3
For data set [7], the system named is Enterococcus faecalis (ATCC29212). As to the kind of experiment: Microtitre plate assay, IC90 determination. To be noted: 90% inhibitory concentration for bacterial growth; for IC90: read-out: IC90 EFA 29212. It counts as cell-based. Here is the method:
as §1, §2, §3

Data set [8] has as its system methicilline resistant Staphylococcus aureus (MRSA) (a clinical isolate from the University of Antwerp). Kind of data set: Microtitre plate assay, IC90 determination. It is filed as cell-based. The settings on record: 90% inhibitory concentration for bacterial growth; for IC90: Staphylococcus aureus, MRSA, read-out: IC90 STA RMETHIC. Here is the method:
as §1, §2, §3

Data set [9] deals with Staphylococcus aureus (ATCC25923). As to the kind of experiment: Microtitre plate assay, IC90 determination. It is filed as cell-based. The settings on record: for IC90: Staphylococcus aureus, ATCC25923, 90% inhibitory concentration for bacterial growth, read-out: IC90 STA 25923; for IC90 STA 25923: 90% inhibitory concentration for bacterial growth. The method, then:
as §1, §2, §3

Data set [10] concerns Bacillus subtilis (ATCC43639). As to the kind of experiment: Microtitre plate assay, IC90 determination. It counts as cell-based. To be noted: 90% inhibitory concentration for bacterial growth; for IC90: read-out: IC90 BSU 43639. Here is the method: as §1, §2, §3
Data set [11] concerns Enterococcus faecalis (ATCC14506). Kind of data set: Microtitre plate assay, IC90 determination. It is filed as cell-based. To be noted: 90% inhibitory concentration for bacterial growth; for IC90: read-out: IC90 EFA 14506. The method, then: as §1, §2, §3

Converted amounts (≈) assume the structure as drawn.

`CN(C)CC(c1cccc(F)c1)C(O)C(Cc1ccccc1)c1ccc2cc(Br)ccc2n1` (single isomer, unassigned) [Compound 1] displayed a melting point of 136 °C. Also, the IC90 in data set [1] was found to be 10.1 µg/mL (≈ 19.9 µM). Besides, in data set [2], the IC90 came to 12.8 µg/mL (≈ 25.2 µM). Also, the IC90 in [3] was found to be 10.1 µg/mL (≈ 19.9 µM). In addition, the IC90 in data set [4] is 12.8 µg/mL (≈ 25.2 µM). For the same molecule, the 90% effect concentration (IC90) in data set [5] is 10.1 µg/mL (≈ 19.9 µM). In addition, the IC90 in [6] turned out to be 12.8 µg/mL (≈ 25.2 µM). Besides, in data set [7], the IC90 is 12.8 µg/mL (≈ 25.2 µM). For the same molecule, the concentration for an effect of 90% (IC90) in [8] was 12.8 µg/mL (≈ 25.2 µM). The IC90 in data set [9] turned out to be 12.8 µg/mL (≈ 25.2 µM).

`CN(C)CC(c1cccc2ccccc12)C(O)C(Cc1ccccc1)c1ccc2cc(Br)ccc2n1` (single isomer, unassigned) [Compound 2] gave a melting point of 143 °C. The IC90 in data set [1] is 10.8 µg/mL (≈ 20 µM). Further, the IC90 in data set [2] was 13.6 µg/mL (≈ 25.2 µM). Also, in data set [3], the 90% effect concentration (IC90) stood at 10.8 µg/mL (≈ 20 µM). Besides, the IC90 in data set [4] stood at 12.1 µg/mL (≈ 22.4 µM). Moreover, the IC90 in data set [5] is 10.8 µg/mL (≈ 20 µM). In data set [6], the IC90 stood at 10.8 µg/mL (≈ 20 µM). Moreover, in [7], the 90% effect concentration (IC90) was found to be 10.8 µg/mL (≈ 20 µM). Further, the IC90 in data set [8] stood at 13.6 µg/mL (≈ 25.2 µM). In [10], the concentration for an effect of 90% (IC90) stood at 13.6 µg/mL (≈ 25.2 µM). In [11], the IC90 worked out at 12.1 µg/mL (≈ 22.4 µM). In addition, the IC90 in data set [9] came out at 13.6 µg/mL (≈ 25.2 µM).

`CN(C)CC(c1cccc2ccccc12)C(O)C(Cc1ccccc1)c1ccc2cc(Br)ccc2n1` (single isomer, unassigned) [Compound 3] came in with a melting point of 69 °C.

For `CN(C)CC(c1cccc(F)c1)C(O)C(Cc1ccccc1)c1ccc2cc(Br)ccc2n1` (single isomer, unassigned) [Compound 4], the melting point came out at 179 °C.

`CCc1cc2cc(C(c3ccccc3)C(O)(CCN(C)C)c3cccc4ccccc34)ccc2nc1Cl` (single isomer, unassigned) [Compound 5]: in data set [1], the “IC90 LMO 49594” value is 12.8 µg/mL (≈ 25.1 µM). Also, in data set [2], the “IC90 SPN 6305” value turned out to be 12.8 µg/mL (≈ 25.1 µM). Also, in data set [3], the “IC90 SPY 8668” value was determined as 12.8 µg/mL (≈ 25.1 µM). The “IC90 STA 29213” value in data set [4] amounted to 12.8 µg/mL (≈ 25.1 µM). Besides, the “IC90 PAE 27853” value in data set [6] amounted to 12.8 µg/mL (≈ 25.1 µM). In addition, the “IC90 EFA 29212” value in data set [7] is 12.8 µg/mL (≈ 25.1 µM). In addition, the “IC90 STA RMETHIC” value in [8] came to 12.8 µg/mL (≈ 25.1 µM). Moreover, the “IC90 BSU 43639” value in data set [10] came out at 12.8 µg/mL (≈ 25.1 µM). For the same molecule, in [11], the “IC90 EFA 14506” value came out at 11.4 µg/mL (≈ 22.4 µM). Further, in [9], the “IC90 STA 25923” value stood at 5.1 µg/mL (≈ 10 µM).

For `CCc1cc2cc(C(c3ccccc3)C(O)(CCN(C)C)c3cccc4ccccc34)ccc2nc1Cl` (single isomer, unassigned) [Compound 6], the IC90 in [1], in data set [2], in [3], in [4], in [6] and in data set [7] was 12.8 µg/mL (≈ 25.1 µM) throughout. Further, the IC90 in [10] is 12.8 µg/mL (≈ 25.1 µM); in data set [11] it was 11.4 µg/mL (≈ 22.4 µM). Besides, in data set [8], the “IC90 STA RMETHIC” value amounted to 50.9 µg/mL (≈ 100 µM). Moreover, the “IC90 STA 25923” value in [9] was 12.8 µg/mL (≈ 25.1 µM).

In the case of `CCc1cc2ccc(C(c3ccccc3)C(O)(CCN(C)C)c3cc(F)cc(F)c3)cc2nc1Cl` (single isomer, unassigned) [Compound 9], the “IC90 LMO 49594” value in data set [1] was determined as 12.4 µg/mL (≈ 25 µM). For the same molecule, in data set [2], the “IC90 SPN 6305” value came out at 12.4 µg/mL (≈ 25 µM). Moreover, in [3], the “IC90 SPY 8668” value came to 9.9 µg/mL (≈ 20 µM). In addition, in data set [4], the “IC90 STA 29213” value worked out at 11.1 µg/mL (≈ 22.4 µM). The IC90 came out at 9.9 µg/mL (≈ 20 µM) in data set [5] and 11.1 µg/mL (≈ 22.4 µM) in data set [11]. Besides, the “IC90 PAE 27853” value in data set [6] amounted to 9.9 µg/mL (≈ 20 µM). The “IC90 EFA 29212” value in data set [7] is 12.4 µg/mL (≈ 25 µM). Also, the “IC90 STA RMETHIC” value in data set [8] came to 12.4 µg/mL (≈ 25 µM). In addition, in data set [10], the “IC90 BSU 43639” value amounted to 12.4 µg/mL (≈ 25 µM). Moreover, the “IC90 STA 25923” value in data set [9] turned out to be 12.4 µg/mL (≈ 25 µM).

As to `CCc1cc2ccc(C(c3ccccc3)C(O)(CCN(C)C)c3cc(F)cc(F)c3)cc2nc1Cl` (single isomer, unassigned) [Compound 10], the IC90 in data set [1] worked out at 12.4 µg/mL (≈ 25 µM); in data set [2], 12.4 µg/mL (≈ 25 µM); in [3], 12.4 µg/mL (≈ 25 µM); in [4], 12.4 µg/mL (≈ 25 µM); in [6], 9.9 µg/mL (≈ 20 µM); in data set [7], 12.4 µg/mL (≈ 25 µM). Further, the IC90 in [8], in data set [10] and in data set [9] was 12.4 µg/mL (≈ 25 µM) in each case.

With `CCc1cc2cc(C(c3ccccc3)C(O)(CCN(C)C)c3cc(F)cc(F)c3)ccc2nc1Cl` (single isomer, unassigned) [Compound 11], the IC90 stood at 7.9 µg/mL (≈ 16 µM) in data set [1]; 12.4 µg/mL (≈ 25 µM) in data set [2]; 12.4 µg/mL (≈ 25 µM) in data set [3]; 12.4 µg/mL (≈ 25 µM) in data set [4]; 12.4 µg/mL (≈ 25 µM) in [6]; 12.4 µg/mL (≈ 25 µM) in data set [7]. The IC90 in data set [8] was 49.5 µg/mL (≈ 100 µM); in [10], 39.3 µg/mL (≈ 79.4 µM); in data set [9], 49.5 µg/mL (≈ 100 µM).

For the molecule `CCc1cc2cc(C(c3ccccc3)C(O)(CCCCN(C)C)c3ccccc3)ccc2nc1OC` (single isomer, unassigned) [Compound 12], the IC90 in data set [2] and in [4] was 1.53 µg/mL (≈ 3.17 µM) throughout.

As to `COc1nc2ccc(C(c3ccccc3)C(O)(CCCCN(C)C)c3ccccc3)cc2cc1C` (single isomer, unassigned) [Compound 13], the IC90 in [2] and in data set [4] was 7.43 µg/mL (≈ 15.9 µM) in each case.
